# Like-named read-outs stand apart in the source and are kept apart here.
# What was measured:
# [1] = test system: mice; assay: hypobaric hypoxia in mice (survival time in decompression chamber, 210 mmHg); format: in vivo, white mice line H; details: 1 hour before the hypoxia
# Experimental: EXAMPLE 1: Pharmacological study: Cerebro-protective anti-hypoxic effect using the method "hypobaric hypoxia" in mice. The experiments are carried out on white mice line H (18-22 g) in groups of 8 animals. […] The survival time (in seconds) from the beginning of the hypoxia till the death of the animals was measured. The results were calculated as a percentage towards the control group. […]
# [2] = test system: mice; assay: complete ischaemia by decapitation in mice (duration of respiratory movements of the isolated head); format: in vivo, white mice line H; details: 1 hour before
# Experimental: Example 2. Pharmacological study of the cerebro-protective anti-ischaemic effect using the method of"complete ischaemia by decapitation" in mice. The experiments are carried out on white mice line H (18-22g) in groups of 8 animals. Complete […] caused by means of a decapitation of the animals using the method of Hollowach-Thurston et al.(9). The duration of the respiratory movements of the isolated head (in seconds) was measured. The results are calculated as a percentage towards the control group. […]
# [3] = test system: mice; details: mouse, in vivo
# [4] = in vivo; details: mouse
SMILES,Increase of the resistancy towards hypoxia (% towards the control group) ([1]; 10 mg/kg intraperitoneally),Increase of the resistance towards ischaemia (% towards the control group) ([2]; 10 mg/kg intraperitoneally),LD₅₀ ([3]; ip),LD₅₀ ([3]; po),LD50 ([4]; ip),LD50 ([4]; po),Increase of the resistancy towards hypoxia (% towards the control group) ([1]; 1600 mg/kg intraperitoneally),Increase of the resistance towards ischaemia (% towards the control group) ([2]; 1600 mg/kg intraperitoneally)
Fc1ccc(C(c2ccc(F)cc2)N2CCN(C/C=C/c3ccccc3)CC2)cc1 [Flunarizine],"11,7%","42,8%",204/158+264/ mg/kg,232/182+295/ mg/kg,204 mg/kg,232 mg/kg,–,–
"NC(=O)CN1CCCC1=O [Piracetam, 2-oxo-1-pyrrolidineacetamide]",–,–,–,–,8000 mg/kg,8000 mg/kg,"22,8%","27,9%"
